Measurements as given in patent publication US10881698B2, “Diagnosis and treatment for respiratory tract diseases” (THE TRUSTEES OF THE UNIVERSITY OF PENNSYLVANIA, priority 2012, dated 2021).
Residue numbers refer to the chain shown, from its start. Values joined by “and” are separate entries in the source; they are usually repeats but may differ in a detail not shown here. Identical values can stand only once. Like-named read-outs stand apart in the source and are kept apart here.

Columns and labels:
[1] = test system: T2R38; assay: DAF-FM imaging of NO production in human sinonasal ALI cultures; assay type: cell-based; details: for DAF-FM fluorescence increase: 5 min, PAV/AVI
[2] = test system: nasal epithelial cells; assay: Fluo-4 calcium signaling with denatonium in nasal epithelial cells (sinonasal ALI cultures); assay type: cell-based, human; details: for Effect on denatonium induced calcium signaling: 2 mM sucrose or 1 mM sucralose
[3] = test system: Pseudomonas aeruginosa; assay: Kill assay with ASL from stimulated sinonasal ALI cultures (CFU plating); assay type: cell-based
[4] = test system: sinonasal epithelial cells; assay: DAF-FM NO production with quinine in PAV/AVI heterozygote sinonasal epithelial cells; assay type: cell-based, human
[5] = test system: sinonasal ALI cultures; assay type: cell-based, human
[6] = target: T1, PAV-TAS2R38 (Homo sapiens, UniProt P59533, A49P/I296V); assay: Fluo-4 calcium mobilization in HEK293 cells expressing hTAS2R38 (PAV) and Gα16gustducin44; assay type: cell-based; details: PAV variant
T1 construct: first 45 amino acids of rat SSTR-3 (N); host or cells: HEK293 (peakRapid), transient transfection, pcDNA3.1(+)
T1 sequence (P59533 1-333 A49P/I296V): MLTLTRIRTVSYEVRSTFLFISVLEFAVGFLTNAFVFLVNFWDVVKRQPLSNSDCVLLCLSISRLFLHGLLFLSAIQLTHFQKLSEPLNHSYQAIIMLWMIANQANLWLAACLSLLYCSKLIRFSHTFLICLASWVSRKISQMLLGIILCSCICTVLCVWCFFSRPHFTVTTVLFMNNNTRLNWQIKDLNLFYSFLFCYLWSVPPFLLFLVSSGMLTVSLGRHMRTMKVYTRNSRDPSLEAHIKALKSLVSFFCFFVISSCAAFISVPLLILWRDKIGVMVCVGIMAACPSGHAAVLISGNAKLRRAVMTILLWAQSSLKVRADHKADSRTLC

[7] = test system: acutely dissociated sinonasal ciliated epithelial cells; assay: Ca2+ and DAF-FM responses in acutely dissociated sinonasal ciliated cells; assay type: cell-based, human
[8] = target: T2, T2R38 (Homo sapiens, UniProt P59533, A262V); assay: DAF-FM imaging of NO production in human sinonasal ALI cultures; assay type: cell-based; details: for DAF-FM fluorescence increase: 5 min, AVI/AVI
T2 construct: T2R38 is expressed in human upper airway epithelium; endogenous in cells; host or cells: primary human sinonasal epithelial cells, air-liquid interface cultures from surgical patients
T2 sequence (P59533 1-333 A262V): T1 sequence (P59533 1-333 A49P/I296V) with P49A, A262V, V296I

[9] = target: T3, T2R38 (Homo sapiens, UniProt P59533, A49P/I296V); assay: as above; assay type: cell-based; details: for DAF-FM fluorescence increase: 5 min, PAV/PAV
T3 construct: T2R38 is expressed in human upper airway epithelium; endogenous in cells; host or cells: primary human sinonasal epithelial cells, air-liquid interface cultures from surgical patients
T3 sequence (P59533 1-333 A49P/I296V): T1 sequence (P59533 1-333 A49P/I296V)

[10] = target: T4, AVI-TAS2R38 (Homo sapiens, UniProt P59533, A262V); assay: Fluo-4 calcium mobilization in HEK293 cells expressing hTAS2R38 (AVI) and Gα16gustducin44; assay type: cell-based; details: AVI variant
T4 construct: first 45 amino acids of rat SSTR-3 (N); host or cells: HEK293 (peakRapid), transient transfection, pcDNA3.1(+)
T4 sequence (P59533 1-333 A262V): T1 sequence (P59533 1-333 A49P/I296V) with P49A, A262V, V296I

[11] = test system: sinonasal ALI cultures; assay: Mucociliary transport velocity of fluorescent microspheres on sinonasal ALI cultures; assay type: cell-based, human; details: for Concentration required to stimulate a significant increase in mucociliary transport: PAV/PAV cultures
[12] = target: T2, T2R38; assay: Fluo-4 Ca2+ imaging in primary human sinonasal ALI cultures; assay type: cell-based; details: AVI/AVI
[13] = target: T3, T2R38; assay: as above; assay type: cell-based; details: for Average peak Fluo-4 F/Fo after 5 min stimulation with C6HSL: 200 μM C6HSL
[14] = test system: T2R38; assay: as above; assay type: cell-based
[15] = test system: Pseudomonas aeruginosa
[16] = test system: beta-defensin 2; assay: Beta-defensin 2 secretion by sinonasal cultures; assay type: cell-based, human; details: denatonium- or absinthin-stimulated cultures
[17] = C4HSL 200 μM, U73122 5 μM, 20 min pre-incubation

C[C@H](CCC(=O)O)C[C@H](C)C[C@H](C)C(=O)/C=C(\O)[C@H](C)C[C@H](C)C/C=C/[C@@H](C)[C@@H](O)[C@@H](C)[C@@H](O)C[C@@H]1CC[C@@](C)([C@H]2CC[C@@](C)([C@@H](C)O)O2)O1 [ionomycin]
DAF-FM responses between the genotypes (control stimuli) [1]: did not yield differential DAF-FM responses between the genotypes

COc1ccc(OC(C)C(=O)O)cc1 (stereo not shown) [lactisole]
Effect on sucrose/sucralose inhibition of denatonium calcium signaling ([2]; sweet receptor antagonist): substantially eliminates the inhibition | Effect on glucose-mediated inhibition of bacterial kill ([3]; lactisole 5 mM): reduced or reversed the glucose-mediated inhibition of bacterial kill

C=C[C@H]1C[N@@]2CC[C@H]1C[C@H]2[C@H](O)c1ccnc2ccc(OC)cc12 [quinine]
NO production (increase in DAF-FM fluorescence) ([4]; apical application, PAV/AVI heterozygote cells): stimulated a robust NO production

COC(=O)[C@H](N)CCCN=C(N)N[N+](=O)[O-] [D-NAME]
Effect on HSL-stimulated CBF increase [5]: not

CCCC(=O)N[C@H]1CCOC1=O [C4HSL, N-butyryl-L-homoserine lactone]
Peak Fluo-4 fluorescence (ΔF/F) ([6]; 200 μM): 61±2% | Ca2+ responses in acutely dissociated sinonasal ciliated cells [7]: occurred | DAF-FM fluorescence increase ([8]; 10 μM): 50±2 | DAF-FM fluorescence increase ([8]; 100 μM): 69±8 | DAF-FM fluorescence increase ([9]; 10 μM): 132±14 | DAF-FM fluorescence increase ([9]; 100 μM): 230±30 | DAF-FM fluorescence increase ([1]; 10 μM): 68±6 | DAF-FM fluorescence increase ([1]; 100 μM): 130±17 | Peak Fluo-4 fluorescence (ΔF/F) ([10]; 200 μM): 0.3±0.4% | Increase in velocity ([11]; 0.1 μM, PAV/PAV): 1.07±0.02 | Increase in velocity ([11]; 1 μM, PAV/PAV): 1.12±0.03 | Increase in velocity ([11]; 10 μM, PAV/PAV): 1.21±0.04 | Increase in velocity ([11]; 100 μM, AVI/AVI): 1.12±0.03 | Increase in velocity ([11]; 100 μM, PAV/PAV): 1.47±0.07 | Concentration required to stimulate a significant increase in mucociliary transport [11]: 10 µM | Fluo-4 fluorescence after 5 min C4HSL ([12]; 200 μM C4HSL): 1.10±0.04 | Fluo-4 fluorescence after 5 min C4HSL ([13]; 200 μM C4HSL, PAV/PAV): 1.29±0.03 | Fluo-4 fluorescence after 5 min C4HSL ([14]; 200 μM C4HSL, PAV/AVI): 1.14±0.04 | Peak CBF with C4HSL [5]: 1.17±0.02 and 1.02±0.02

CC1(C)N([O])C(c2ccc(C(=O)O)cc2)=[N+]([O-])C1(C)C [cPTIO]
% green (viable) PAO1 [15]: 93±2%

OC[C@H]1O[C@H](O[C@]2(CCl)O[C@H](CCl)[C@@H](O)[C@@H]2O)[C@H](O)[C@@H](O)[C@H]1Cl [sucralose]
Effect on denatonium induced calcium signaling [2]: inhibits denatonium induced calcium signaling

CCCCCC(=O)N[C@H]1CCOC1=O [C6HSL, N-Hexanoyl-L-homoserine lactone]
Average peak Fluo-4 F/Fo after 5 min stimulation with C6HSL ([12]; 200 μM C6HSL): 1.21±0.09 | Average peak Fluo-4 F/Fo after 5 min stimulation with C6HSL ([13]; PAV/PAV): 1.52±0.074 | Average peak Fluo-4 F/Fo after 5 min stimulation with C6HSL ([13]; PAV/PAV+U73122): 1.10±0.09

Nc1ncnc2c1ncn2[C@@H]1O[C@H](COP(=O)(O)OP(=O)(O)OP(=O)(O)O)[C@@H](O)[C@H]1O [ATP]
Peak Fluo-4 F/Fo during 10 μM ATP stimulation ([12]; 10 μM ATP): 2.90±0.09 | Peak Fluo-4 F/Fo during 10 μM ATP stimulation ([13]; PAV/PAV): 2.96±0.08 | Peak Fluo-4 F/Fo during 10 μM ATP stimulation ([13]; PAV/PAV+U73122): 2.82±0.1 | Peak F/Fo during stimulation with 1 μM ATP ([14]; L-NAME (50 μM)): 2.0±0.26 | Peak F/Fo during stimulation with 1 μM ATP ([14]; control (no L-NAME)): 1.9±0.21 | ATP-induced Ca2+ responses versus TAS2R38 genotype ([14]; ATP 1 μM, PAV/PAV, PAV/AVI, AVI/AVI cultures): did not correlate with TAS2R38 genotype | Peak CBF after ATP stimulation between genotypes [5]: not significantly different between cultures of different genotypes | Bactericidal response on stimulation of cells ([3]; ATP stimulation): no bactericidal response was observed

sodium thiocyanate [NaSCN]
DAF-FM fluorescence increase after 5 min NaSCN [8]: 61±23 units | DAF-FM fluorescence increase after 5 min NaSCN [9]: 202±38 units | F/Fo after stimulation with 5 mM NaSCN ([14]; +L-NAME (50 μM)): 1.24±0.07 | F/Fo after stimulation with 5 mM NaSCN ([14]; control (no L-NAME)): 1.33±0.08

CCCCCCCCCC(=O)CC(=O)N[C@H]1CCOC1=O [C12HSL, N-3-oxo-dodecanoyl-L-homoserine lactone]
Peak Fluo-4 fluorescence (ΔF/F) ([6]; 100 μM): 73±5% | DAF-FM fluorescence increase ([8]; 10 μM): 44±9 | DAF-FM fluorescence increase ([8]; 100 μM): 64±16 | DAF-FM fluorescence increase ([9]; 10 μM): 235±20 | DAF-FM fluorescence increase ([9]; 100 μM): 351±65 | DAF-FM fluorescence increase ([1]; 10 μM): 77±13 | DAF-FM fluorescence increase ([1]; 100 μM): 109±25 | Peak Fluo-4 fluorescence (ΔF/F) ([10]; 100 μM): 3±2% | Increase in velocity ([11]; 0.1 μM, PAV/PAV): 1.09±0.02 | Increase in velocity ([11]; 1 μM, PAV/PAV): 1.23±0.04 | Increase in velocity ([11]; 10 μM, PAV/PAV): 1.48±0.04 | Increase in velocity ([11]; 100 μM, AVI/AVI): 1.14±0.03 | Increase in velocity ([11]; 100 μM, PAV/PAV): 1.64±0.04 | Concentration required to stimulate a significant increase in mucociliary transport [11]: 1 µM | Fluo-4 fluorescence after 10 min C12HSL stimulation ([12]; 100 μM C12HSL): 1.14±0.01 | Fluo-4 fluorescence after 10 min C12HSL stimulation ([13]; 100 μM C12HSL, PAV/PAV): 1.52±0.08 | Fluo-4 fluorescence after 10 min C12HSL stimulation ([14]; 100 μM C12HSL, PAV/AVI): 1.28±0.04 | Peak CBF with C12HSL [5]: 1.25±0.05 and 1.03±0.01

COc1ccc2c(c1)CC[C@@H]1[C@@H]2CC[C@]2(C)[C@@H](NCCCCCCN3C(=O)C=CC3=O)CC[C@@H]12 [U73122]
Effect on C4HSL-induced NO production in taster cultures [9, 17]: blocked | Effect on denatonium-induced antimicrobial response ([3]; U73122 20 μM): inhibited | Effect on beta-defensin secretion [16]: may be blocked

COc1ccc2c(c1)CC[C@@H]1[C@@H]2CC[C@]2(C)[C@@H](NCCCCCCN3C(=O)CCC3=O)CC[C@@H]12 [U73343]
Effect on C4HSL-induced NO production in taster cultures [9, 17]: had no effect on NO production | Effect on beta-defensin secretion [16]: had no effect

COC(=O)[C@@H](N)CCCNC(=N)N[N+](=O)[O-] [L-NAME, L-N^G-Nitroarginine methyl ester]
% green (viable) PAO1 [15]: 90±2% | Effect on quinine-stimulated NO production ([4]; L-NAME 20 μM): inhibited | Effect on C4HSL-induced NO production in taster cultures [9]: represses the NO production | Effect on NaSCN-activated DAF-FM fluorescence [1]: blocked | Effect on CBF increase in response to 6.25% PAO1 supernatant [5]: significantly inhibited | Effect on HSL-stimulated CBF increase [5]: blocked

OC[C@H]1O[C@@](CO)(O[C@H]2O[C@H](CO)[C@@H](O)[C@H](O)[C@H]2O)[C@@H](O)[C@@H]1O [sucrose]
Effect on denatonium induced calcium signaling [2]: inhibits denatonium induced calcium signaling

CC(=O)NC(C(=O)O)C(C)(C)SN=O (racemic) [SNAP, S-Nitroso-N-Acetyl-D,L-Penicillamine]
DAF-FM responses between the genotypes (control stimuli) ([1]; SNAP 100 μM, ionomycin): did not yield differential DAF-FM responses between the genotypes

colistin sulfate
% green (viable) PAO1 [15]: 4±2%

CC(C)[C@]12CC(=O)[C@H](C)[C@H]1C2 [thujone]
NO production with non-T2R38 bitter ligands [9]: did not stimulate NO production | Ca2+ responses in sinonasal ALI cultures ([2]; non-T2R38 bitter agonists): not

COC(=O)[C@@]1(OC)C[C@H]2O[C@]1(C)n1c3ccccc3c3c4c(c5c6ccccc6n2c5c31)C(=O)N(C)C4 [KT5823]
Effect on HSL-stimulated CBF increase [5]: blocked

OCc1ccccc1O[C@@H]1O[C@H](CO)[C@@H](O)[C@H](O)[C@H]1O [salicin]
Peak Fluo-4 fluorescence (ΔF/F) ([6]; 10 mM): 1.4±0.3% | Peak Fluo-4 fluorescence (ΔF/F) ([10]; 10 mM): 3±1%

CCCc1cc(=O)[nH]c(=S)[nH]1 [PROP, 6-n-propylthiouracil]
Intracellular DAF-FM fluorescence (NO production) ([9]; apical application, PAV/PAV (taster) cells): stimulated an increase in intracellular DAF-FM fluorescence
